In ChEMBL document CHEMBL1147429, “Synthesis and evaluation of novel bacterial rRNA-binding benzimidazoles by mass spectrometry” (Bioorg Med Chem Lett, 2004):

System: Ribosomal RNA A-site
Test: Binding affinity for the 16S ribosomal RNA A-site of Escherichia coli
Format: nucleic-acid assay

SMILES: O=[N+]([O-])c1ccc2[nH]c(-c3cccnc3)nc2c1
- Kd: > 1000 µM

SMILES: c1ccc2[nH]c(C3CCNCC3)nc2c1
- Kd: 108 µM

SMILES: Fc1c(F)c(C(F)(F)F)c(F)c(F)c1Cn1c(C2CCNCC2)nc2cc(Cl)c(Cl)cc21
- Kd: 117 µM

SMILES: Fc1c(F)c(F)c(Cn2c(C3CCNCC3)nc3cc(Cl)c(Cl)cc32)c(F)c1F
- Kd: 237 µM

SMILES: CN1CCC(c2nc3cc([N+](=O)[O-])ccc3[nH]2)CC1
- Kd: > 1000 µM

SMILES: Clc1cc2nc(C3CCNCC3)n(Cc3cccnc3)c2cc1Cl
- Kd: 67 µM

SMILES: CC(C)(C)c1ccc(Cn2c(C3CCNCC3)nc3cc(Cl)c(Cl)cc32)cc1
- Kd: 575 µM

SMILES: Cc1ccc(OC(=O)n2c(C3CCNCC3)nc3cc(Cl)c(Cl)cc32)cc1
- Kd: > 1000 µM

SMILES: Clc1cc2nc(C3CCNCC3)n(Cc3ccc(I)cc3)c2cc1Cl
- Kd: 198 µM

SMILES: Clc1ccc2[nH]c(C3CCNCC3)nc2c1
- Kd: 508 µM

SMILES: Cn1c(C2CCNCC2)nc2cc(Cl)c(Cl)cc21
- Kd: 239 µM

SMILES: FC(F)(F)c1ccc2[nH]c(C3CCNCC3)nc2c1
- Kd: 281 µM

SMILES: O=[N+]([O-])c1ccc(Cn2c(C3CCNCC3)nc3cc(Cl)c(Cl)cc32)cc1
- Kd: 241 µM

SMILES: Nc1cccc(-c2nc3cc([N+](=O)[O-])ccc3[nH]2)c1
- Kd: > 1000 µM

SMILES: O=[N+]([O-])c1ccc2[nH]c(C3CCNCC3)nc2c1
- Kd: 308 µM

SMILES: FC(F)(F)c1ccc(Cn2c(C3CCNCC3)nc3cc(Cl)c(Cl)cc32)c(C(F)(F)F)c1
- Kd: 159 µM

SMILES: Cc1ccc2[nH]c(C3CCNCC3)nc2c1
- Kd: 439 µM

SMILES: N[C@H]1C(O)O[C@H](CO)C(O)[C@@H]1O (single isomer, unassigned) [GLUCOSAMINE]
- Kd: ~1000 µM

SMILES: Clc1cc2nc(C3CCNCC3)n(Cc3ccc(Br)cc3)c2cc1Cl
- Kd: 434 µM

SMILES: c1nc2nc(C3CCNCC3)nc-2c[nH]1
- Kd: 914 µM

SMILES: O=[N+]([O-])c1cc(C(F)(F)F)ccc1-n1c(C2CCNCC2)nc2cc(Cl)c(Cl)cc21
- Kd: 122 µM

SMILES: Clc1cc2nc(C3CCNCC3)n(Cc3cccc(I)c3)c2cc1Cl
- Kd: 405 µM

SMILES: N[C@H]1CC[C@@H](c2nc3cc([N+](=O)[O-])ccc3[nH]2)C1
- Kd: 221 µM

SMILES: Brc1ccc2[nH]c(C3CCNCC3)nc2c1
- Kd: 361 µM

SMILES: Clc1ccc2scc(Cn3c(C4CCNCC4)nc4cc(Cl)c(Cl)cc43)c2c1
- Kd: > 1000 µM

SMILES: Nc1ccc2[nH]c(C3CCNCC3)nc2c1
- Kd: 500 µM

SMILES: Clc1cc2nc(C3CCNCC3)n(Cc3ccccc3Br)c2cc1Cl
- Kd: 593 µM

SMILES: COC(=O)c1ccc(Cn2c(C3CCNCC3)nc3cc(Cl)c(Cl)cc32)cc1
- Kd: 224 µM

SMILES: O=C(O)Cn1c(C2CCNCC2)nc2cc(Cl)c(Cl)cc21
- Kd: > 1000 µM

SMILES: Clc1cc2nc(C3CCNCC3)[nH]c2cc1Cl
- Kd: 174 µM

SMILES: Nc1ccc(-c2nc3cc([N+](=O)[O-])ccc3[nH]2)cc1
- Kd: > 1000 µM

SMILES: O=[N+]([O-])c1ccc2[nH]c(-c3ccncc3)nc2c1
- Kd: > 1000 µM

SMILES: CCCCn1c(C2CCNCC2)nc2cc(Cl)c(Cl)cc21
- Kd: 278 µM

SMILES: c1ccc2sc(C3CCNCC3)nc2c1
- Kd: > 1000 µM

SMILES: c1cc2nc(C3CCNCC3)nc-2c[nH]1
- Kd: 110 µM

SMILES: Clc1cc2nc(C3CCNCC3)n(Cc3ccncc3)c2cc1Cl
- Kd: 60 µM

SMILES: NC1CCCC(c2nc3cc([N+](=O)[O-])ccc3[nH]2)C1 (stereo not drawn)
- Kd: 105 µM

SMILES: O=[N+]([O-])c1ccc(-n2c(C3CCNCC3)nc3cc(Cl)c(Cl)cc32)c([N+](=O)[O-])c1
- Kd: 243 µM

SMILES: COC(=O)Cn1c(C2CCNCC2)nc2cc(Cl)c(Cl)cc21
- Kd: 301 µM

SMILES: COc1ccc2[nH]c(C3CCNCC3)nc2c1
- Kd: 588 µM

SMILES: N[C@H]1CC[C@@H](c2nc3cc([N+](=O)[O-])ccc3[nH]2)CC1
- Kd: 123 µM

SMILES: Cc1cc2[nH]c(C3CCNCC3)nc2cc1Cl
- Kd: 380 µM

SMILES: Clc1cc2nc(C3CCNCC3)n(-c3ncccn3)c2cc1Cl
- Kd: 672 µM

SMILES: FC(F)(F)c1ccc(Cn2c(C3CCNCC3)nc3cc(Cl)c(Cl)cc32)cc1
- Kd: 214 µM

SMILES: O=[N+]([O-])c1ccc2[nH]c(C3CCCCC3)nc2c1
- Kd: > 1000 µM

SMILES: CC(=O)N1CCC(c2nc3cc([N+](=O)[O-])ccc3[nH]2)CC1
- Kd: > 1000 µM

SMILES: c1c[nH]c2nc(C3CCNCC3)nc-2c1
- Kd: 535 µM

SMILES: Cc1ccc(S(=O)(=O)n2c(C3CCNCC3)nc3cc(Cl)c(Cl)cc32)cc1
- Kd: > 1000 µM
